Measured values: patent publication US20220332763A1, “FUSED POLYPEPTIDE AND USE THEREOF” (NANJING ANJI BIOLOGICAL TECHNOLOGY CO., LTD., priority 2019, published 2022)
Where no end group is shown, it is not given here.

Tests used:
[1] = tested on: SD rats with bleomycin-induced pulmonary fibrosis; assay: Bleomycin-induced pulmonary fibrosis animal model; type: in vivo; conditions: for Survival rate (%): dosage 10 mg/kg in Table 2, administration 14 days, model group 50
Method: SD rats were anesthetized by intraperitoneal injection of 1 mL/100 g 4% chloral hydrate. After anesthesia, the rats were fixed and their necks were disinfected by using cotton with 75% alcohol. The skin of the rat neck was longitudinally cut with scissors, and the fascia and muscle were longitudinally bluntly torn with tweezers to expose the trachea. A syringe was inserted into the trachea to inject 5 mg/kg bleomycin, while a blank group was injected with an equal amount of normal saline. Then a rat plate was quickly erected and rotated, the rats' breathing was observed, the neck wound was sterilized after rotation and was sewn, and an amoxicillin anti-inflammatory drug was sprinkled on the suture. After the operation, the rats were put back into a dry and clean cage for resting, waiting was performed for awakening. The rats were awakened after about 1-2 hours, and then fed normally. On the 7th day after modeling, modeling group animals randomly fell into a model group, a Nintedanib positive drug group, polypeptide I, II, III, IV, V, VI dosage groups, and a normal control group, and the groups were administered separately for an administration cycle of 14 days. Living situations of rats were observed every day and their weights were weighed. After administration for 14 days, the SD rats were dissected, the lung tissue was taken, and the right lung tissue was placed in a tissue fixative only for fixation, and HE staining and Masson staining and slice analysis were performed.

TGF-β1 = assay: Renal fibrosis animal model (ureter ligation), TGF-β1 in serum; type: in vivo; conditions: SD rats with renal fibrosis; 7.5 mg/kg subcutaneous twice a day, 14 days; FIG. 3
Method: A renal fibrosis animal model was established. SD rats were anesthetized with 4% chloral hydrate, injected with 1 mL/100 g intraperitoneally, fixed to an operation board, and sterilized in an operation area for later use. […] Muscular layers and abdominal walls were sewed layer by layer, the suture was disinfected with alcohol. After SD rats woke up, the rats were put into a cage for feeding. In the blank group, ureter was not ligated, and other steps were the same.
Then, the animals fell into a blank group, a model group, and polypeptide administration groups, with 10 animals in each group, and the administration was started on the second day after the operation, twice a day for 14 days. After administration for 14 days, blood was taken and supernatant was taken to detect the content of TGF-β1 in serum.

[2] = tested on: LX-2 hepatic stellate cells; assay: In vitro hepatic fibrosis model, MTT assay; type: cell-based; conditions: 1 μmol/L; for Inhibition of proliferation (in words): 24 hours and 48 hours, Example 2; for Optical density value, 12 h / Optical density value, 24 h / Optical density value, 48 h: LX-2 cells, MTT, OD at 570 nm; for Optical density value, 12 h: blank group 0.456 ± 0.012; for Optical density value, 24 h: blank group 0.548 ± 0.01; for Optical density value, 48 h: blank group 0.812 ± 0.016
Method: (§1) The inhibitory effect of a polypeptide on LX-2 hepatic stellate cells was detected by MTT assay. Cells were cultured in a 1640 medium containing 10% of FBS, the […] was made into 4×10^5/mL cell suspension, and 100 μL per well was inoculated into a 96-well plate. After the cells adhered to the wall, the medium was replaced with a serum-free 1640 medium, and the serum-free medium was discarded after 24 hours. The cells were cultured with different polypeptides of 1 μmol/L, and 5 multiple wells were set for each concentration. After 12, 24 and 48 hours separately, 10 μL of MTT was added to each well. After 4 hours, MTT was sucked out, and 150 μL of DMSO was added to each well. After reaction for 5 min, an OD value was measured at 570 nm by a microplate reader.

[3] = tested on: cardiac fibroblasts of rats; assay: Myocardial fibrosis model, MTT assay; type: cell-based; conditions: 1 μmol/L; for Inhibition of proliferation of cardiac fibroblasts of rats (in words): 24 hours and 48 hours; for Optical density value, 12 h / Optical density value, 24 h / Optical density value, 48 h: cardiac fibroblasts of rats, MTT, OD at 570 nm; for Optical density value, 12 h: blank group 0.353 ± 0.001; for Optical density value, 24 h: blank group 0.464 ± 0.018; for Optical density value, 48 h: blank group 0.896 ± 0.001
Method: as §1, with “cardiac fibroblasts of rats” for “LX-2 hepatic stellate cells”, “DMEM” for “1640”, “1×10^5/mL” for “4×10^5/mL”

HYP = assay: Bleomycin skin fibrosis model, HYP content in skin tissue; type: in vivo, C57/BL black mice; conditions: bleomycin skin fibrosis mice; 10 mg/kg subcutaneous twice a day, 28 days; FIG. 4
Method: Bleomycin (10 μg/mL) was injected subcutaneously every day for 28 days to form skin fibrosis. During the modeling period, the administration groups were given polypeptide drugs twice a day for treatment. After modeling, the mice were killed on the next day, and the skin tissue of the mouse back was taken to detect the content of HYP in the skin tissue.

TSLDASIIWAMMQNGGGGLSKLGGGGSDKP [Polypeptide IV, Thr-Ser-Leu-Asp-Ala-Ser-Ile-Ile-Trp-Ala-Met-Met-Gln-Asn-linker-Leu-Ser-Lys-Leu-linker-Ser-Asp-Lys-Pro]
Survival rate (%) [1]: 80%
Content of TGF-β1 in serum versus model group (TGF-β1): highly significantly different from the model group (***P<0.001)
Inhibition of proliferation (in words) [2]: could inhibit the proliferation
Optical density value, 12 h [2]: 0.478 ± 0.018
Optical density value, 24 h [2]: 0.472 ± 0.03
Optical density value, 48 h [2]: 0.580 ± 0.012
Inhibition of proliferation of cardiac fibroblasts of rats (in words) [3]: could inhibit the proliferation
Optical density value, 12 h [3]: 0.362 ± 0.015
Optical density value, 24 h [3]: 0.392 ± 0.008
Optical density value, 48 h [3]: 0.583 ± 0.012
Expression of HYP content in tissue versus model group (HYP): highly significantly different from the model group (***P<0.001)

COC(=O)c1ccc2c(c1)NC(=O)/C2=C(\Nc1ccc(N(C)C(=O)CN2CCN(C)CC2)cc1)c1ccccc1 [Positive drug group, Nintedanib, reference compound]
Survival rate (%) [1]: 90%

LSKLGGGGSDKPGGGGTSLDASIIWAMMQN [Polypeptide V, Leu-Ser-Lys-Leu-linker-Ser-Asp-Lys-Pro-linker-Thr-Ser-Leu-Asp-Ala-Ser-Ile-Ile-Trp-Ala-Met-Met-Gln-Asn]
Survival rate (%) [1]: 70%
Content of TGF-β1 in serum versus model group (TGF-β1): highly significantly different from the model group (**P<0.01)
Inhibition of proliferation (in words) [2]: could inhibit the proliferation
Optical density value, 12 h [2]: 0.462 ± 0.004
Optical density value, 24 h [2]: 0.477 ± 0.015
Optical density value, 48 h [2]: 0.618 ± 0.015
Inhibition of proliferation of cardiac fibroblasts of rats (in words) [3]: could inhibit the proliferation
Optical density value, 12 h [3]: 0.357 ± 0.024
Optical density value, 24 h [3]: 0.397 ± 0.015
Optical density value, 48 h [3]: 0.588 ± 0.019
Expression of HYP content in tissue versus model group (HYP): highly significantly different from the model group (*P<0.05)

Ac-SDKPGGGGTSLDASIIWAMMQNGGGGLSKL (N-terminus assumed) [Polypeptide II, Ser-Asp-Lys-Pro-linker-Thr-Ser-Leu-Asp-Ala-Ser-Ile-Ile-Trp-Ala-Met-Met-Gln-Asn-linker-Leu-Ser-Lys-Leu]
Survival rate (%) [1]: 80%
Content of TGF-β1 in serum versus model group (TGF-β1): highly significantly different from the model group (***P<0.001)
Inhibition of proliferation (in words) [2]: could inhibit the proliferation
Optical density value, 12 h [2]: 0.463 ± 0.012
Optical density value, 24 h [2]: 0.394 ± 0.005
Optical density value, 48 h [2]: 0.578 ± 0.005
Inhibition of proliferation of cardiac fibroblasts of rats (in words) [3]: could inhibit the proliferation
Optical density value, 12 h [3]: 0.352 ± 0.004
Optical density value, 24 h [3]: 0.367 ± 0.016
Optical density value, 48 h [3]: 0.568 ± 0.013
Expression of HYP content in tissue versus model group (HYP): highly significantly different from the model group (***P<0.001)

LSKLGGGGTSLDASIIWAMMQNGGGGSDKP [Polypeptide VI, Leu-Ser-Lys-Leu-linker-Thr-Ser-Leu-Asp-Ala-Ser-Ile-Ile-Trp-Ala-Met-Met-Gln-Asn-linker-Ser-Asp-Lys-Pro]
Survival rate (%) [1]: 70%
Content of TGF-β1 in serum versus model group (TGF-β1): highly significantly different from the model group (**P<0.01)
Inhibition of proliferation (in words) [2]: could inhibit the proliferation
Optical density value, 12 h [2]: 0.453 ± 0.021
Optical density value, 24 h [2]: 0.502 ± 0.013
Optical density value, 48 h [2]: 0.652 ± 0.018
Inhibition of proliferation of cardiac fibroblasts of rats (in words) [3]: could inhibit the proliferation
Optical density value, 12 h [3]: 0.340 ± 0.012
Optical density value, 24 h [3]: 0.412 ± 0.005
Optical density value, 48 h [3]: 0.622 ± 0.007
Expression of HYP content in tissue versus model group (HYP): highly significantly different from the model group (***P<0.001)

TSLDASIIWAMMQNGGGGSDKPGGGGLSKL [Polypeptide III, Thr-Ser-Leu-Asp-Ala-Ser-Ile-Ile-Trp-Ala-Met-Met-Gln-Asn-linker-Ser-Asp-Lys-Pro-linker-Leu-Ser-Lys-Leu]
Survival rate (%) [1]: 80%
Content of TGF-β1 in serum versus model group (TGF-β1): highly significantly different from the model group (**P<0.01)
Inhibition of proliferation (in words) [2]: could inhibit the proliferation
Optical density value, 12 h [2]: 0.455 ± 0.002
Optical density value, 24 h [2]: 0.435 ± 0.013
Optical density value, 48 h [2]: 0.642 ± 0.018
Inhibition of proliferation of cardiac fibroblasts of rats (in words) [3]: could inhibit the proliferation
Optical density value, 12 h [3]: 0.349 ± 0.012
Optical density value, 24 h [3]: 0.413 ± 0.003
Optical density value, 48 h [3]: 0.612 ± 0.018
Expression of HYP content in tissue versus model group (HYP): highly significantly different from the model group (*P<0.05)

Ac-SDKPGGGGLSKLGGGGTSLDASIIWAMMQN (N-terminus assumed) [Polypeptide I, Ser-Asp-Lys-Pro-linker-Leu-Ser-Lys-Leu-linker-Thr-Ser-Leu-Asp-Ala-Ser-Ile-Ile-Trp-Ala-Met-Met-Gln-Asn]
Survival rate (%) [1]: 90%
Survival rate compared with model group / positive drug group ([1]; in words): equivalent to that of the positive drug group
Content of TGF-β1 in serum versus model group (TGF-β1): highly significantly different from the model group (***P<0.001)
Inhibition of proliferation (in words) [2]: could inhibit the proliferation
Optical density value, 12 h [2]: 0.452 ± 0.008
Optical density value, 24 h [2]: 0.542 ± 0.03
Optical density value, 48 h [2]: 0.680 ± 0.014
Inhibition of proliferation of cardiac fibroblasts of rats (in words) [3]: could inhibit the proliferation
Optical density value, 12 h [3]: 0.362 ± 0.006
Optical density value, 24 h [3]: 0.402 ± 0.002
Optical density value, 48 h [3]: 0.678 ± 0.002
Expression of HYP content in tissue versus model group (HYP): highly significantly different from the model group (*P<0.05)
